Measured values as given in US5391540A, “Substituted pyridine compounds” (Rohm and Haas Company, priority 1993, dated 1995).

Assays:
Type in all cases: in vivo
Dobr = test: plant injury after spraying emerged plants (Table D)
Text: Topsoil (silt loam) is sieved through a screen having 1.27 cm openings. In some of the tests the soil was mixed with fertilizer (1225 g/cu. m of 12/5/9 containing isobutylidene diurea), while in other tests the fertilizer was omitted. This mixture is steam sterilized and then placed in aluminum pans 6.985 cm deep having ten holes in the bottom each 0.635 cm in diameter. The soil mixture is compacted to a depth of 1.27 cm. from the top of the pan. A predetermined number of seeds of each of several dicotyledonous and monocotyledonous annual plant species and/or vegetative propagules for the perennial plant species are placed on the soil and pressed into the soil surface. The seeds and/or vegetative propagules are covered with 1.27 cm of a mixture of 50% topsoil and 50% of a mixture of Canadian sphagnum peat moss, vermiculite and a wetting agent. The pans are then placed on a capillary mat on a greenhouse bench and subirrigated as needed. After the plants reach the desired stage (9 to 14 days, 1 to 3 true leaf stage), each pan (except the control pans) is removed to a spraying chamber and sprayed by means of an atomizer, operating at a spray pressure of 170.3 kPa ([…]) at the application rates noted in Table D. In the spray solution is an amount of an emulsifying agent mixture (35% butylamine salt of dodecylbenzenesulfonic acid and 65% tall oil condensed with ethylene oxide in the ratio of 11 mols of ethylene oxide/mol of tall oil) to give a spray solution or suspension. The spray solution or suspension contains a sufficient amount of the candidate chemical in order to give application rates of the active ingredient corresponding to those shown in Table D below while applying a total amount of solution or suspension equivalent to 1870 L/Ha (200 gallons/acre). The pans are returned to the greenhouse and watered as before and the injury to the plants as compared to the control pans is observed at approximately 10-14 days (usually 11 days).
(§1) In the following Table D the legends used to identify the plant species are the same as those used in the preceding Table B.

Barnyardgrass = test: Pre-emergent herbicidal activity (Table A); conditions: Echinochloa crus-galli, pre-emergence, Bygr, 11.2 kg/ha, 10-14 days, read-out: herbicidal rating (% inhibition)
Outline: (§2)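 Seeds or perennial propagules set on compacted topsoil, then covered with soil mixed with a known amount of test compound applied in acetone or water carrier. Ratings assigned on a scale based on percent inhibition of each species.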

Downy Brome = test: Pre-emergent herbicidal activity (Table A); conditions: Bromus tectorum, pre-emergence, Dobr, 11.2 kg/ha, 10-14 days, read-out: herbicidal rating (% inhibition)
Outline: as §2

Morningglory = test: Pre-emergent herbicidal activity (Table A); conditions: Ipomoea, pre-emergence, Mogl, 11.2 kg/ha, 10-14 days, read-out: herbicidal rating (% inhibition)
Outline: as §2

Cocklebur = test: Pre-emergent herbicidal activity (Table A); conditions: Xanthium strumarium, pre-emergence, Cobu, 11.2 kg/ha, 10-14 days, read-out: herbicidal rating (% inhibition)
Outline: as §2

Grso = test: plant injury after spraying emerged plants (Table D); set-up: scale not given here
Text: (§3) Topsoil (silt loam) is sieved through a screen having 1.27 cm openings. […] This mixture is steam sterilized and then placed in aluminum pans 6.985 cm deep having ten holes in the bottom each 0.635 cm in diameter. The soil mixture is compacted to a depth of 1.27 cm. from the top of the pan. A predetermined number of seeds of each of several dicotyledonous and monocotyledonous annual plant species and/or vegetative propagules for the perennial plant species are placed on the soil and pressed into the soil surface. The seeds and/or vegetative propagules are covered with 1.27 cm of a mixture of 50% topsoil and 50% of a mixture of Canadian sphagnum peat moss, vermiculite and a wetting agent. The pans are then placed on a capillary mat on a greenhouse bench and subirrigated as needed.
as §1

Lacg = test: as above; set-up: scale not given here
Text: as §3, §1

Bygr = test: as above; set-up: scale not given here
Text: as §3, §1

Cobu = test: as above; set-up: scale not given here
Text: as §3, §1

Rice = test: as above; set-up: scale not given here
Text: as §3, §1

Sobe = test: as above; set-up: scale not given here
Text: as §3, §1

Mogl = test: as above; set-up: scale not given here
Text: as §3, §1

Prmi = test: as above; set-up: scale not given here
Text: as §3, §1

Corn = test: as above; set-up: scale not given here
Text: as §3, §1

Whez = test: as above; set-up: scale not given here
Text: as §3, §1

Grft = test: as above; set-up: scale not given here
Text: as §3, §1

COC(=O)c1c(OC)nc(C(F)(F)F)c(N=CSC)c1CC(C)C [Compound 77, 3-pyridinecarboxylic acid, 2-methoxy-4-(2-methylpropyl)-5-[[(methylthio)methylene]amino]-6-(trifluoromethyl)-, methyl ester]
plant injury rating, Dobr (Dobr; 1.1210 kg/ha): 0
plant injury rating, Dobr (Dobr; 2.8025 kg/ha): 0
plant injury rating, Dobr (Dobr; 11.2100 kg/ha): 0
inhibition at 11200 g/ha (Barnyardgrass): 75 to 100%
inhibition at 11200 g/ha (Downy Brome): 75 to 100%
inhibition at 11200 g/ha (Morningglory): 75 to 100%
inhibition at 11200 g/ha (Cocklebur): 50 to 74%
plant injury rating, Grso (Grso; 2.8025 kg/ha): 1
plant injury rating, Grso (Grso; 11.2100 kg/ha): 1
plant injury rating, Lacg (Lacg; 1.1210 kg/ha): 2
plant injury rating, Lacg (Lacg; 2.8025 kg/ha): 3
plant injury rating, Lacg (Lacg; 5.6050 kg/ha): 3
plant injury rating, Lacg (Lacg; 11.2100 kg/ha): 3
plant injury rating, Bygr (Bygr; 1.1210 kg/ha): 0
plant injury rating, Bygr (Bygr; 5.6050 kg/ha): 2
plant injury rating, Bygr (Bygr; 11.2100 kg/ha): 3
plant injury rating, Cobu (Cobu; 2.8025 kg/ha): 1
plant injury rating, Cobu (Cobu; 11.2100 kg/ha): 3
plant injury rating, Rice (Rice; 1.1210 kg/ha): 0
plant injury rating, Rice (Rice; 2.8025 kg/ha): 0
plant injury rating, Rice (Rice; 5.6050 kg/ha): 0
plant injury rating, Rice (Rice; 11.2100 kg/ha): 0
plant injury rating, Sobe (Sobe; 1.1210 kg/ha): 1
plant injury rating, Sobe (Sobe; 2.8025 kg/ha): 1
plant injury rating, Mogl (Mogl; 1.1210 kg/ha): 1
plant injury rating, Mogl (Mogl; 2.8025 kg/ha): 2
plant injury rating, Mogl (Mogl; 5.6050 kg/ha): 2
plant injury rating, Mogl (Mogl; 11.2100 kg/ha): 3
plant injury rating, Prmi (Prmi; 1.1210 kg/ha): 0
plant injury rating, Prmi (Prmi; 2.8025 kg/ha): 0
plant injury rating, Prmi (Prmi; 5.6050 kg/ha): 0
plant injury rating, Corn (Corn; 2.8025 kg/ha): 2
plant injury rating, Corn (Corn; 5.6050 kg/ha): 2
plant injury rating, Corn (Corn; 11.2100 kg/ha): 3
plant injury rating, Whez (Whez; 1.1210 kg/ha): 0
plant injury rating, Whez (Whez; 2.8025 kg/ha): 0
plant injury rating, Whez (Whez; 5.6050 kg/ha): 0
plant injury rating, Grft (Grft; 1.1210 kg/ha): 0
plant injury rating, Grft (Grft; 2.8025 kg/ha): 1

COC(=O)c1c(OC)nc(C(F)(F)F)c(C2SCCS2)c1CC(C)C [Compound 93, 3-pyridinecarboxylic acid, 5-(1,3-dithiolan-2-yl)-2-methoxy-4-(2-methylpropyl)-6-(trifluoromethyl)-, methyl ester]
plant injury rating, Dobr (Dobr; 0.0701 kg/ha): 0
plant injury rating, Dobr (Dobr; 0.2803 kg/ha): 0
plant injury rating, Dobr (Dobr; 1.1210 kg/ha): 0
plant injury rating, Dobr (Dobr; 5.6050 kg/ha): 0
inhibition at 11200 g/ha (Barnyardgrass): 75 to 100%
inhibition at 11200 g/ha (Downy Brome): 75 to 100%
inhibition at 11200 g/ha (Morningglory): 75 to 100%
inhibition at 11200 g/ha (Cocklebur): 0 to 24%
plant injury rating, Grso (Grso; 0.0701 kg/ha): 0
plant injury rating, Grso (Grso; 0.2803 kg/ha): 0
plant injury rating, Grso (Grso; 1.1210 kg/ha): 0
plant injury rating, Grso (Grso; 5.6050 kg/ha): 2
plant injury rating, Lacg (Lacg; 0.2803 kg/ha): 2
plant injury rating, Lacg (Lacg; 1.1210 kg/ha): 3
plant injury rating, Lacg (Lacg; 5.6050 kg/ha): 3
plant injury rating, Bygr (Bygr; 0.0701 kg/ha): 0
plant injury rating, Bygr (Bygr; 0.2803 kg/ha): 0
plant injury rating, Bygr (Bygr; 1.1210 kg/ha): 0
plant injury rating, Bygr (Bygr; 5.6050 kg/ha): 2
plant injury rating, Cobu (Cobu; 0.0701 kg/ha): 0
plant injury rating, Cobu (Cobu; 0.2803 kg/ha): 0
plant injury rating, Cobu (Cobu; 1.1210 kg/ha): 2
plant injury rating, Cobu (Cobu; 5.6050 kg/ha): 3
plant injury rating, Rice (Rice; 0.0701 kg/ha): 0
plant injury rating, Rice (Rice; 0.2803 kg/ha): 0
plant injury rating, Rice (Rice; 1.1210 kg/ha): 0
plant injury rating, Rice (Rice; 5.6050 kg/ha): 0
plant injury rating, Sobe (Sobe; 0.0701 kg/ha): 0
plant injury rating, Sobe (Sobe; 0.2803 kg/ha): 1
plant injury rating, Sobe (Sobe; 1.1210 kg/ha): 2
plant injury rating, Sobe (Sobe; 5.6050 kg/ha): 3
plant injury rating, Mogl (Mogl; 0.0701 kg/ha): 0
plant injury rating, Mogl (Mogl; 0.2803 kg/ha): 2
plant injury rating, Mogl (Mogl; 1.1210 kg/ha): 2
plant injury rating, Mogl (Mogl; 5.6050 kg/ha): 3
plant injury rating, Prmi (Prmi; 0.0701 kg/ha): 0
plant injury rating, Prmi (Prmi; 0.2803 kg/ha): 0
plant injury rating, Prmi (Prmi; 1.1210 kg/ha): 0
plant injury rating, Prmi (Prmi; 5.6050 kg/ha): 0
plant injury rating, Corn (Corn; 0.0701 kg/ha): 0
plant injury rating, Corn (Corn; 0.2803 kg/ha): 3
plant injury rating, Corn (Corn; 1.1210 kg/ha): 3
plant injury rating, Corn (Corn; 5.6050 kg/ha): 3
plant injury rating, Whez (Whez; 0.0701 kg/ha): 0
plant injury rating, Whez (Whez; 0.2803 kg/ha): 0
plant injury rating, Whez (Whez; 1.1210 kg/ha): 0
plant injury rating, Whez (Whez; 5.6050 kg/ha): 0
plant injury rating, Grft (Grft; 0.0701 kg/ha): 0
plant injury rating, Grft (Grft; 0.2803 kg/ha): 0
plant injury rating, Grft (Grft; 1.1210 kg/ha): 0
plant injury rating, Grft (Grft; 5.6050 kg/ha): 1

COC(=O)c1c(OC)nc(C(F)(F)F)c(C(=O)NCCCBr)c1CC(C)C [Compound 97, 3-pyridinecarboxylic acid, 5-[[(3-bromopropyl)amino)carbonyl]-2-methoxy-4-(2-methylpropyl)-6-(trifluoromethyl)-, methyl ester]
plant injury rating, Dobr (Dobr; 0.0701 kg/ha): 0
plant injury rating, Dobr (Dobr; 0.2803 kg/ha): 0
plant injury rating, Dobr (Dobr; 1.1210 kg/ha): 0
plant injury rating, Dobr (Dobr; 5.6050 kg/ha): 0
inhibition at 11200 g/ha (Barnyardgrass): 75 to 100%
inhibition at 11200 g/ha (Downy Brome): 50 to 74%
inhibition at 11200 g/ha (Morningglory): 50 to 74%
inhibition at 11200 g/ha (Cocklebur): 0 to 24%
plant injury rating, Grso (Grso; 0.0701 kg/ha): 0
plant injury rating, Grso (Grso; 0.2803 kg/ha): 0
plant injury rating, Grso (Grso; 1.1210 kg/ha): 0
plant injury rating, Grso (Grso; 5.6050 kg/ha): 0
plant injury rating, Lacg (Lacg; 0.0701 kg/ha): 0
plant injury rating, Lacg (Lacg; 0.2803 kg/ha): 0
plant injury rating, Lacg (Lacg; 1.1210 kg/ha): 2
plant injury rating, Lacg (Lacg; 5.6050 kg/ha): 0
plant injury rating, Bygr (Bygr; 0.0701 kg/ha): 0
plant injury rating, Bygr (Bygr; 0.2803 kg/ha): 0
plant injury rating, Bygr (Bygr; 1.1210 kg/ha): 0
plant injury rating, Bygr (Bygr; 5.6050 kg/ha): 0
plant injury rating, Cobu (Cobu; 0.0701 kg/ha): 0
plant injury rating, Cobu (Cobu; 0.2803 kg/ha): 0
plant injury rating, Cobu (Cobu; 1.1210 kg/ha): 0
plant injury rating, Cobu (Cobu; 5.6050 kg/ha): 0
plant injury rating, Rice (Rice; 0.0701 kg/ha): 0
plant injury rating, Rice (Rice; 0.2803 kg/ha): 0
plant injury rating, Rice (Rice; 1.1210 kg/ha): 0
plant injury rating, Rice (Rice; 5.6050 kg/ha): 0
plant injury rating, Sobe (Sobe; 0.0701 kg/ha): 0
plant injury rating, Sobe (Sobe; 0.2803 kg/ha): 0
plant injury rating, Sobe (Sobe; 1.1210 kg/ha): 0
plant injury rating, Sobe (Sobe; 5.6050 kg/ha): 0
plant injury rating, Mogl (Mogl; 0.0701 kg/ha): 0
plant injury rating, Mogl (Mogl; 0.2803 kg/ha): 0
plant injury rating, Mogl (Mogl; 1.1210 kg/ha): 0
plant injury rating, Mogl (Mogl; 5.6050 kg/ha): 0
plant injury rating, Prmi (Prmi; 0.0701 kg/ha): 0
plant injury rating, Prmi (Prmi; 0.2803 kg/ha): 0
plant injury rating, Prmi (Prmi; 1.1210 kg/ha): 0
plant injury rating, Prmi (Prmi; 5.6050 kg/ha): 0
plant injury rating, Corn (Corn; 0.0701 kg/ha): 0
plant injury rating, Corn (Corn; 0.2803 kg/ha): 0
plant injury rating, Corn (Corn; 1.1210 kg/ha): 0
plant injury rating, Corn (Corn; 5.6050 kg/ha): 0
plant injury rating, Whez (Whez; 0.0701 kg/ha): 0
plant injury rating, Whez (Whez; 0.2803 kg/ha): 0
plant injury rating, Whez (Whez; 1.1210 kg/ha): 0
plant injury rating, Whez (Whez; 5.6050 kg/ha): 0
plant injury rating, Grft (Grft; 0.0701 kg/ha): 0
plant injury rating, Grft (Grft; 0.2803 kg/ha): 0
plant injury rating, Grft (Grft; 1.1210 kg/ha): 0
plant injury rating, Grft (Grft; 5.6050 kg/ha): 0
